The subject of series [1] is adenylate cyclase in the caudate nucleus. The note with it: compared with dopamine; cited from earlier work.
For series [2], the system named is alpha2. Put plainly: alpha2-agonist activity in isolated guinea pig atrial tissue.
For series [3], the system named is alpha1. The experiment in a line: alpha1-agonist activity in superfused rabbit ear artery segment. The note with it: read-out: EC50-α1, acid addition salt form.
Procedure: (§1) The procedure measures the ability of the test compound to inhibit the constrictor response of isolated perfused rabbit ear artery caused by field stimulation of its adrenergic nerve terminals. Activity in this test is, then, compared with undesired alpha1 -agonist activity which is determined in the superfused rabbit ear artery segment.
The target of series [4] is T1, presynaptic dopaminergic (DA2) receptor (Oryctolagus cuniculus, UniProt G1T1Q0). Put plainly: stimulation-evoked 3H-norepinephrine release from prelabelled rabbit ear artery (DA2).
T1 sequence (G1T1Q0 1-443): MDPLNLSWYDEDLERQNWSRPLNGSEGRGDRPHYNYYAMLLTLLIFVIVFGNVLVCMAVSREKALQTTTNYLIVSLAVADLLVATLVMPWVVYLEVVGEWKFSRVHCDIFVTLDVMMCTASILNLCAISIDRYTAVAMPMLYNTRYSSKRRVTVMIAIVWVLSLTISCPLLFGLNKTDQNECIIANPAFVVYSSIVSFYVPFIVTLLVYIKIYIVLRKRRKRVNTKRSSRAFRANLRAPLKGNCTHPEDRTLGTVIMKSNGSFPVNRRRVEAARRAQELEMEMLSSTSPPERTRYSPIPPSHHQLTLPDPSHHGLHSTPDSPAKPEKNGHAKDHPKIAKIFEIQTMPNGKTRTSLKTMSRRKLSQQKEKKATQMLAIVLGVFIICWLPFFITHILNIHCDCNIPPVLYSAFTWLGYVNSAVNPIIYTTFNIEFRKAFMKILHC
Series [5] concerns the target T1, presynaptic dopaminergic (DA2) receptor.
Procedure: as §1
For series [6], the system named is presynaptic dopaminergic (DA2) receptor. As to conditions: for vasoconstriction observed during the tests (alpha1-mediated): rabbit ear artery, Compound B at 300 nM in the effector response test.
Procedure: as §1

Read-outs that look alike come from different tables or passages of the source.

Turning to `CS(=O)(=O)Nc1cc(CCN)ccc1O` [3-methylsulfonamido analogue of dopamine], in series [1], the “agonist activity for adenylate cyclase” value is “weaker than was dopamine itself”.
For `CCCN(CCC)CCc1ccc(O)c(NS(C)(=O)=O)c1` [Compound A], the alpha2-agonist activity entry in series [2] was “no alpha2 -agonist activity”. For the same compound, the values for the EC50 in series [3], in series [4] and in series [5] were 760 nM, 10 nM and 2 nM, respectively. For the same compound, the “selectivity for peripheral DA2 receptor sites over alpha1” value in series [6] (from DA2 EC50 vs alpha1 EC50) is “high selectivity for the desired peripheral DA2 receptor sites”. The “vasoconstriction observed during the tests (alpha1-mediated)” value in series [6] is “No alpha1 -mediated vasoconstriction was observed”.
`CS(=O)(=O)Nc1cc(CCN)ccc1O` [Compound B]: the alpha2-agonist activity entry in series [2] is given as “significant α2 -activity”. In addition, the EC50 (as a rule, the midpoint of the concentration-response curve) in series [3] is 355 nM; in series [4], 3000 nM; in series [5], greater than 300 nM. For the same compound, the “vasoconstriction observed during the tests (alpha1-mediated)” value in series [6] was “vasoconstriction was observed”.
As for `CNCCc1ccc(O)c(NS(C)(=O)=O)c1` [Compound C], the alpha2-agonist activity entry in series [2] was “significant α2 -activity”. Besides, the EC50 in series [3] is 25 nM; in series [4] it was 300 nM; in series [5], greater than 30 nM. Moreover, in series [6], the “vasoconstriction observed during the tests (alpha1-mediated)” value was “demonstrates vasoconstriction as a result of alpha1 -agonist activity”.
As for `CC(C)NCCc1ccc(O)c(NS(C)(=O)=O)c1` [D], the values for the EC50 in series [3] and in series [5] were 2000 nM and greater than 1000 nM, respectively.
Compound `CCCN(CCC)CCc1ccc(O)c(NS(=O)(=O)C(F)(F)F)c1` [E] showed an EC50 in series [5] greater than 1000 nM.
Regarding `CCCN(CCC)CCc1cccc(NS(C)(=O)=O)c1` [F], the EC50 in series [5] stood at 400 nM.
Still for that read-out and setting: with `CS(=O)(=O)Nc1cccc(CCN)c1` [G] the figure was greater than 1000 nM.

The values above are taken from patent publication US4507320A.
